# Where “and” joins values, the source holds several entries; their conditions need not be identical. Equal entries are not always repeated.
# Experiments:
# mMOR [1] = target: T1, mMOR (Mus musculus, UniProt P42866); assay: [125I]BNtxA radioligand competition binding, mouse MOR; settings: mean ± SEM, n = 3; [125I]BNtxA; read-out: Ki ± SEM mMOR
# T1 construct: signal peptide (heterologous, not specified) (N); expressed in transfected cells; pcDNA3.1(+) construct made in house
# mKOR = target: T2, mKOR (Mus musculus, UniProt P33534); assay: [125I]BNtxA radioligand competition binding, mouse KOR; settings: mean ± SEM, n = 3; [125I]BNtxA; read-out: Ki ± SEM mKOR
# T2 construct: expressed in transfected cells; membranes
# mDOR [2] = target: T3, mDOR (Mus musculus, UniProt P32300); assay: [125I]BNtxA radioligand competition binding, mouse DOR; settings: mean ± SEM, n = 3; [125I]BNtxA; read-out: Ki ± SEM mDOR
# T3 construct: expressed in transfected cells
# mMOR [3] = target: T1, mMOR; assay: CAMYEL BRET cAMP agonist assay at mMOR; assay type: cell-based; settings: mMOR; for cAMP %: single replicates, source data Fig 6b, listed as C11-Br-7OH (24)
# hMOR [4] = target: T4, hMOR (Homo sapiens, UniProt P35372); assay: CAMYEL BRET cAMP agonist assay at hMOR; assay type: cell-based; settings: for cAMP %: hMOR, single replicates, source data Fig 6c, listed as C11-Br-7OH (24)
# T4 construct: expressed in transfected cells; plasmid a gift from Dr. Nevin Lambert
# mMOR [5] = target: T1, mMOR; assay: CAMYEL BRET antagonism assay at mMOR (inhibition of DAMGO); assay type: cell-based; settings: for Antagonist activity at mMOR, raw signal (single replicate values): source data of Fig 8a and Table 5, listed as C11-Br-7OH (24);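 as to Antagonist activity at mMOR, raw signal (single replicate values): BRET signal rises as cAMP falls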
# hMOR [6] = target: T4, hMOR; assay: cell-based
# mDOR [7] = target: T3, mDOR; assay: CAMYEL BRET cAMP agonist assay at mDOR; assay type: cell-based; settings: Log[drug] (M) -5; single replicate values, Supplementary Figure 7B
# [8] = Log[drug] (M) -13, cAMP inhibition as % of DAMGO
structure (smiles),measurement,setting,value
"CC[C@@H]1CN2CC[C@@]3(O)C(=Nc4cc(Br)cc(OC)c43)[C@@H]2C[C@@H]1/C(=C\OC)C(=O)OC [11-Br-7OH (24), 11-Br-7OH]",Ki,mMOR [1],32.4 ± 1.4 nM
same,Ki,mKOR,81.1 ± 7.1 nM
same,Ki,mDOR [2],57.7 ± 6.7 nM
same,cAMP %,mMOR [3]; Log[drug] (M) -5,9.013% and 6.73% and 3.065% and 5.631% and 1.057% and 0.04315% and 7.004% and 14.1806% and 4.634%
same,cAMP %,mMOR [3]; Log[drug] (M) -6,5.8044% and 1.851% and 7.958% and 11.2571% and 3.589% and -1.762% and 6.0175% and 2.324% and 0.676%
same,cAMP %,mMOR [3]; Log[drug] (M) -7,-3.894% and -5.88% and 9.775% and 0.4502% and 1.258% and -1.708% and 1.616% and 1.4183% and 0.1827%
same,cAMP %,mMOR [3]; Log[drug] (M) -8,1.549% and 0.05958% and 0.01199% and -1.248% and 2.618% and 1.046% and 3.634% and 0.478% and 3.5882%
same,cAMP %,mMOR [3]; Log[drug] (M) -9,13.8914% and 20.7075% and 0.6937% and 7.1213% and -0.7937% and 5.232% and 4.985% and -2.644% and 5.425%
same,cAMP %,mMOR [3]; Log[drug] (M) -10,10.1801% and 15.9014% and 8.011% and 8.742% and 7.948% and 6.092% and 2.318% and -3.2024% and 3.127%
same,cAMP %,mMOR [3]; Log[drug] (M) -11,14.2135% and 8.364% and 1.552% and 8.664% and 7.808% and 10.8013% and 0.4413% and -1.089% and 0.6474%
same,cAMP %,mMOR [3]; [8],6.348% and 21.1377% and 5.87% and 7.068% and 6.954% and 15.1455% and 5.75% and 5.389% and 3.7452%
same,Emax,mMOR [3]; maximal inhibitory effect on cAMP levels relative to DAMGO,< 10%
same,EC50,hMOR [4],401 nM
same,Emax,hMOR [4],14%
same,cAMP %,hMOR [4]; Log[drug] (M) -5,14.6374% and 26.5598% and 13.4593% and 12.3793% and 6.1202% and 3.5813% and 27.8092% and 3.652% and 6.737%
same,cAMP %,hMOR [4]; Log[drug] (M) -6,18.6989% and 7.716% and 19.1803% and 0.2165% and 6.6608% and -0.2253% and 39.9126% and 18.2077% and 19.9668%
same,cAMP %,hMOR [4]; Log[drug] (M) -7,12.0186% and 17.6725% and 14.4534% and 3.531% and 0.1326% and -1.3668% and -1.063% and 7.0578% and -1.6001%
same,cAMP %,hMOR [4]; Log[drug] (M) -8,3.165% and 4.1647% and 7.3741% and 8.619% and 14.9301% and 11.6764% and -5.609% and -5.366% and 10.9759%
same,cAMP %,hMOR [4]; Log[drug] (M) -9,2.317% and -1.298% and -1.019% and -2.259% and -7.165% and 10.2432% and 25.8292% and 21.9013% and 22.3959%
same,cAMP %,hMOR [4]; Log[drug] (M) -10,4.34% and -1.394% and 4.504% and 1.432% and 0.8602% and -2.292% and 0.6443% and 11.4211% and 26.9944%
same,cAMP %,hMOR [4]; Log[drug] (M) -11,6.752% and 9.529% and 9.016% and 11.4512% and -5.469% and 12.8282% and 13.3991% and 6.363% and 12.7423%
same,cAMP %,hMOR [4]; [8],4.239% and 4.052% and 15.2175% and 4.859% and 6.721% and 16.8511% and 4.407% and 8.458% and 8.078%
same,IC50,mMOR [5],550 nM
same,"Antagonist activity at mMOR, raw signal (single replicate values)",mMOR [5]; Log[drug] (M) -5,0.01588 and 0.02679 and 0.02408 and 0.03029 and 0.008675 and 0.02853 and 0.02577 and 0.02856 and 0.04207
same,"Antagonist activity at mMOR, raw signal (single replicate values)",mMOR [5]; Log[drug] (M) -6,0.07568 and 0.07832 and 0.06492 and 0.08421 and 0.0634 and 0.06872 and 0.08325 and 0.0829 and 0.07977
same,"Antagonist activity at mMOR, raw signal (single replicate values)",mMOR [5]; Log[drug] (M) -7,0.1777 and 0.1753 and 0.1839 and 0.1921 and 0.1726 and 0.1908 and 0.1553 and 0.1528 and 0.1604
same,"Antagonist activity at mMOR, raw signal (single replicate values)",mMOR [5]; Log[drug] (M) -8,0.2079 and 0.2137 and 0.206 and 0.2077 and 0.2162 and 0.1891 and 0.1751 and 0.1625 and 0.1706
same,"Antagonist activity at mMOR, raw signal (single replicate values)",mMOR [5]; Log[drug] (M) -9,0.1949 and 0.206 and 0.225 and 0.1941 and 0.2008 and 0.2159 and 0.1687 and 0.1594 and 0.1786
same,"Antagonist activity at mMOR, raw signal (single replicate values)",mMOR [5]; Log[drug] (M) -10,0.1894 and 0.2034 and 0.2214 and 0.2024 and 0.209 and 0.1982 and 0.1754 and 0.1654 and 0.1797
same,"Antagonist activity at mMOR, raw signal (single replicate values)",mMOR [5]; Log[drug] (M) -11,0.2409 and 0.2089 (2×) and 0.2025 and 0.1938 and 0.2023 and 0.1798 and 0.1667 and 0.1739
same,IC50,hMOR [6],1970 nM
same,Agonist activity of 7OH analogs at mDOR,mDOR [7],13.8013 and 18.9976 and 33.2307 and 22.3286 and 13.395 and 16.9068 and 13.8361 and 11.2191 and 18.2655
